Results reported in patent US20220227804A1, “COMBINATION OF A POLYHYDROXYLATED BILE ACID AND A FARNESOID X RECEPTOR AGONIST” (QING BILE THERAPEUTICS INC., priority 2019, published 2022).
Like-named read-outs stand apart in the source and are kept apart here.

Tests used:
[1] = tested on: Mdr2^−/− mice; assay: First study: dietary supplementation of Mdr2−/− mice (mouse model of human PSC and PFIC) for 17 weeks; settings: mono-treatment, 0.03% OCA or 1% THBA (w/w) in diet, from 3 to 20 weeks of age, female mice
[2] = tested on: Mdr2^−/− mice; settings: mouse, in vivo

Structure (SMILES): CC[C@H]1[C@@H](O)[C@@H]2[C@H](CC[C@]3(C)[C@@H]([C@H](C)CCC(=O)O)CC[C@@H]23)[C@@]2(C)CC[C@@H](O)C[C@@H]12 [OCA, Obeticholic acid, reference compound]
- adverse effects [1]: no significant, obvious, adverse effects

Structure (SMILES): C[C@H](CCC(=O)O)[C@H]1CC[C@H]2[C@@H]3[C@H](O)[C@H](O)[C@@H]4C[C@H](O)CC[C@]4(C)[C@H]3C[C@H](O)[C@]12C [THBA, 3α, 6α, 7α, 12α-tetrahydroxy-5β-cholan-24-oic acid]
- adverse effects [2]: no significant, obvious, adverse effects
- liver indicator profiles (bilirubin, ALT, ALP, total bile acids in plasma) [1]: significantly improved liver indicator profiles
